In patent US9339503B2, “Tetrahydro-quinazolinone derivatives as TANK and PARP inhibitors” (MERCK PATENT GMBH, priority 2012, dated 2016):

Assays:
[1] = biological target: T1, GST-tagged Tnks-1 (1023-1327 aa) (Homo sapiens, UniProt O95271); assay: TNKS 1 activity ELISA (autoparsylation assay); format: biochemical; details: read-out: IC50 tankyrase 1 (ELISA assay)
T1 construct: GST-tagged Tnks-1 (1023-1327 aa, prepared in-house); made in house
Experimental: (§1) Biochemical Activity Testing of TNKS 1 and 2: Activity ELISA (Autoparsylation Assay)
(§2) For analysis of autoparsylation activity of TNKS 1 and 2 an activity ELISA was performed: In the first step GST tagged TNKS was captured on a Glutathione coated plate. Then the activity assay with biotinylated NAD was performed in the absence/presence of the compounds. During the enzymatic reaction GST tagged TNKS transferred biotinylated ADP-ribose to itself from biotinylated NAD as co-substrate. For the detection streptavidin-HRP conjugate was added that bound to the biotinylated TNKS and was thereby captured to the plates. The amount of biotinylated resp autoparsylated TNKS was detected with a luminescence substrate for HRP. The level of the luminescence signal correlated directly with the amount of autoparsylated TNKS and therefore with activity of TNKS.
(§3) The activity ELISA was performed in 384 well Glutathione coated microtiter plates (Express capture Glutathione coated plate, Biocat, Heidelberg, Germany). The plates were pre-equilibrated with PBS. Then the plates were incubated with 50 μl 20 ng/well GST-tagged Tnks-1 (1023-1327 aa, prepared in-house), respectively GST-tagged Tnks-2 (873-1166 aa, prepared in-house) in assay buffer (50 mM HEPES, 4 mM Mg-chloride, 0.05% Pluronic F-68, 2 mM DTT, pH 7.7) overnight at 4° C. The plates were washed 3 times with PBS-Tween-20. The wells were blocked by incubation at room temperature for 20 minutes with 50 μl blocking buffer (PBS, 0.05% Tween-20, 0.5% BSA). Afterwards the plates were washed 3 times with PBS-Tween-20. The enzymatic reaction was performed in 50 μl reaction solution (50 mM HEPES, 4 mM Mg-chloride, 0.05% Pluronic F-68, 1.4 mM DTT, 0.5% DMSO, pH 7.7) with 10 μM bio-NAD (Biolog, Life science Inst., Bremen, Germany) as co-substrate in the absence or presence of the test compound (10 dilution concentrations) for 1 hour at 30° C. The reaction was stopped by 3 times washing with PBS-Tween-20. For the detection 50 μl of 20 ng/μl Streptavidin, HRP conjugate (MoBiTec, Göttingen, Germany) in PBS/0.05% Tween-20/0.01% BSA were added and the plates were incubated for 30 minutes at room temperature. After three times washing with PBS-Tween-20 50 μl of SuperSignal ELISA Femto Maximum sensitivity substrate solution (ThermoFisherScientific (Pierce), Bonn, Germany) were added. Following a 1 minute incubation at room temperature luminescence signals were measured with an Envision multimode reader (Perkin Elmer LAS Germany GmbH) at 700 nm. The full value used was the inhibitor-free reaction. The pharmacological zero value used was XAV-939 (Tocris) in a final concentration of 5 μM. The inhibitory values (IC50) were determined using either the program Symyx Assay Explorer® or Condosseo® from GeneData.

[2] = biological target: T2, GST-tagged Tnks-2 (873-1166 aa) (Homo sapiens, UniProt Q9H2K2); assay: TNKS 2 activity ELISA (autoparsylation assay); format: biochemical; details: read-out: IC50 tankyrase 2 (ELISA assay)
T2 construct: GST-tagged Tnks-2 (873-1166 aa, prepared in-house); made in house
T2 sequence (Q9H2K2 873-1166): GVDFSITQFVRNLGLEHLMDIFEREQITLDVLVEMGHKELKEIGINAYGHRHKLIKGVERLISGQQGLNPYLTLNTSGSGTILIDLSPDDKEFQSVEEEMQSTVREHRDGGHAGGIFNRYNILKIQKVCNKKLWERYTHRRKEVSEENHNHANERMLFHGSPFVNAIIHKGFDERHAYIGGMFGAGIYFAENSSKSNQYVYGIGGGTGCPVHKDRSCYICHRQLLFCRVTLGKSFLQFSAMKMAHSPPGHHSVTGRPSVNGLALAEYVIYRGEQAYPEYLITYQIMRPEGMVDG
Experimental: as §1, §2, §3

[3] = biological target: T3, GST-tagged Tankyrase-2 (873-1166 aa) (Homo sapiens, UniProt Q9H2K2); assay: Tankyrase 2 autoparsylation assay (HTRF enzyme assay); format: biochemical
T3 construct: GST-tagged Tankyrase-2 (873-1166 aa)
T3 sequence (Q9H2K2 873-1166): as above
Experimental: (§4) The autoparsylation assay was run in two steps: the enzymatic reaction in which GST-tagged Tankyrase-1, resp Tankyrase-2 transferred biotinylated ADP-ribose to itself from biotinylated NAD as co-substrate and the detection reaction where a time resolved FRET between cryptate labelled anti-GST bound to the GST tag of the enzyme and Xlent® labelled-streptavidin bound the biotin-parsylation residue was analysed. The autoparsylation activity was detectable directly via the increase in HTRF signal.
(§5) The autoparsylation assay was performed as 384-well HTRF® (Cisbio, Codolet, France) assay format in Greiner low volume nb 384-well microtiter plates and was used for high throughput screen. 250 nM GST-tagged Tankyrase-1 (1023-1327 aa), respectively about 250 nM GST-tagged Tankyrase-2 (873-1166 aa) and 5 μM bio-NAD (Biolog, Life science Inst., Bremen, Germany) as co-substrate were incubated in a total volume of 5 μl (50 mM HEPES, 4 mM Mg-chloride, 0.05% Pluronic F-68, 1.4 mM DTT, 0.5% DMSO, pH 7.7) in the absence or presence of the test compound (10 dilution concentrations) for 90 min at 30° C. The reaction was stopped by the addition of 1 μl 50 mM EDTA solution. 2 μl of the detection solution (1.6 μM SA-Xlent® (Cisbio, Codolet, France), 7.4 nM Anti-GST-K® (Eu-labelled anti-GST, Cisbio, Codolet, France) in 50 mM HEPES, 800 mM KF, 0.1% BSA, 20 mM EDTA, 0.1% CHAPS, pH 7.0) were added. After 1 h incubation at room temperature the HTRF was measured with an Envision multimode reader (Perkin Elmer LAS Germany GmbH) at excitation wavelength 340 nm (laser mode) and emission wavelengths 615 nm and 665 nm. The ratio of the emission signals was determined. The full value used was the inhibitor-free reaction. The pharmacological zero value used was XAV-939 (Tocris) in a final concentration of 5 μM. The inhibitory values (IC50) were determined using either the program Symyx Assay Explorer® or Condosseo® from GeneData.

[4] = biological target: T4, GST-tagged Tankyrase-1 (1023-1327 aa) (Homo sapiens, UniProt O95271); assay: Tankyrase 1 autoparsylation assay (HTRF enzyme assay); format: biochemical
T4 construct: GST-tagged Tankyrase-1 (1023-1327 aa)
T4 sequence (O95271 1023-1327): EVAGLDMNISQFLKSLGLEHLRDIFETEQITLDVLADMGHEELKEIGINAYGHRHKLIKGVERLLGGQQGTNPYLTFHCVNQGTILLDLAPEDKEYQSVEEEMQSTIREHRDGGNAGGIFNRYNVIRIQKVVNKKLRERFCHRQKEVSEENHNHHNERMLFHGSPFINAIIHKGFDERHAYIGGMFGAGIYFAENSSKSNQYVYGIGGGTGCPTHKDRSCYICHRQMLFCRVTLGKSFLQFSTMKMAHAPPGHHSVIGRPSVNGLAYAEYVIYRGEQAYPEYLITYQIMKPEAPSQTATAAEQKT
Experimental: as §4, §5

[5] = tested on: tankyrase 1/2; assay: Measurement of cellular inhibition of tankyrase (Axin2 level, Luminex based assay, DLD1 cells); details: 24 hours, increase of Axin2 level, read-out: EC50 tankyrase 1/2 (cell assay)
Experimental: Measurement of Cellular Inhibition of Tankyrase
Since Tankyrases have been described to modulate cellular level of Axin2 (Huang et al., 2009; Nature) the increase of Axin2 level is used as read-out for determination of cellular inhibition of Tankyrases in a Luminex based assay.
Cells of the colon carcinoma cell line DLD1 are plated in 96 well plates with 1.5×10^4 cells per well. Next day, cells are treated with a serial-dilution of test compound in seven steps as triplicates with a final DMSO concentration of 0.3%. After 24 hours, cells are lysed in lysis buffer (20 mM Tris/HCl pH 8.0, 150 mM NaCl, 1% NP40, 10% Glycerol) and lysates are cleared by centrifugation through a 96 well filter plate (0.65 μm). Axin2 protein is isolated from cell lysates by incubation with a monoclonal anti-Axin2 antibody (R&D Systems #MAB6078) that is bound to fluorescent carboxybeads. Then, bound Axin2 is specifically detected with a polyclonal anti-Axin2 antibody (Cell Signaling #2151) and an appropriate PE-fluorescent secondary antibody. The amount of isolated Axin2 protein is determined in a Luminex^200 machine (Luminex Corporation) according to the manufacturer's instruction by counting 100 events per well. […] For analysis, the obtained data were normalized against the untreated solvent control and fitted for determination of the EC50 values using the Assay Explorer software (Accelrys).

T1 sequence (O95271 1023-1327): as above

Compound	IC50 [1] [µM]	IC50 [2] [µM]	IC50 [3] [µM]	IC50 [4] [µM]	EC50 [5] [µM]
O=c1[nH]c(N2CCN(c3cccc(F)c3)CC2)nc2c1CCCC2 [Compound A5, 2-[4-(3-Fluorophenyl)piperazin-1-yl]-5,6,7,8-tetrahydro-3H-quinazolin-4-one]	< 0.3	< 0.3	0.3 to 3	0.3 to 3	3 to 50
O=c1[nH]c(N2CCN(c3ccc(Cl)cc3)CC2)nc2c1CCCC2 [Compound A8, 2-[4-(4-Chlorophenyl)piperazin-1-yl]-5,6,7,8-tetrahydro-3H-quinazolin-4-one]	< 0.3	< 0.3	0.3 to 3	0.3 to 3	3 to 50
CC(C)(C)N1CCN(c2nc3c(c(=O)[nH]2)CCCC3)CC1 [Compound A13, 2-(4-tert-Butylpiperazin-1-yl)-5,6,7,8-tetrahydro-3H-quinazolin-4-one]	–	–	0.3 to 3	0.3 to 3	3 to 50
COc1ccc(N2CCN(c3nc4c(c(=O)[nH]3)CCCC4)CC2=O)cc1 [Compound A14, 2-[4-(4-Methoxyphenyl)-3-oxopiperazin-1-yl]-5,6,7,8-tetrahydro-3H-quinazolin-4-one]	–	–	3 to 50	3 to 50	3 to 50
O=C(N1CCCCC1)N1CCN(c2nc3c(c(=O)[nH]2)CCCC3)CC1 [Compound A15, 2-[4-(Piperidine-1-carbonyl)piperazin-1-yl]-5,6,7,8-tetrahydro-3H-quinazolin-4-one]	–	–	3 to 50	3 to 50	3 to 50
O=c1[nH]c(N2CCN(c3cccc(O)n3)CC2)nc2c1CCCC2 [Compound A16, 2-[4-(6-Hydroxypyridin-2-yl)piperazin-1-yl]-5,6,7,8-tetrahydro-3H-quinazolin-4-one]	–	–	3 to 50	3 to 50	3 to 50
O=C(c1ccccc1)N1CCN(c2nc3c(c(=O)[nH]2)CCCC3)CC1 [Compound A17, 2-(4-Benzoylpiperazin-1-yl)-5,6,7,8-tetrahydro-3H-quinazolin-4-one]	–	–	3 to 50	3 to 50	–
O=C(CN1CCN(c2nc3c(c(=O)[nH]2)CCCC3)CC1)Nc1ccccn1 [Compound A18, N-pyridin-2-yl-2-[4-(4-oxo-3,4,5,6,7,8-hexahydroquinazolin-2-yl)piperazin-1-yl]-acetamide]	–	–	0.3 to 3	0.3 to 3	3 to 50
O=C(N1CCOCC1)N1CCN(c2nc3c(c(=O)[nH]2)CCCC3)CC1 [Compound A20, 2-[4-(Morpholine-4-carbonyl)piperazin-1-yl]-5,6,7,8-tetrahydro-3H-quinazolin-4-one]	–	–	3 to 50	3 to 50	3 to 50
O=c1[nH]c(N2CCN(CCO)CC2)nc2c1CCCC2 [Compound A25, 2-[4-(2-hydroxyethyl)piperazin-1-yl]-5,6,7,8-tetrahydro-3H-quinazolin-4-one]	–	–	3 to 50	3 to 50	–
O=c1[nH]c(N2CCN(CCc3ccccn3)CC2)nc2c1CCCC2 [Compound A26, 2-[4-[2-(2-pyridyl)ethyl]piperazin-1-yl]-5,6,7,8-tetrahydro-3H-quinazolin-4-one]	–	–	0.3 to 3	0.3 to 3	–
O=c1[nH]c(N2CCN(c3cccnc3)CC2)nc2c1CCCC2 [Compound A32, 2-[4-(3-pyridyl)piperazin-1-yl]-5,6,7,8-tetrahydro-3H-quinazolin-4-one]	–	–	0.3 to 3	0.3 to 3	–
O=c1[nH]c(N2CCC(O)(c3ccccc3)CC2)nc2c1CCCC2 [Compound A35, 2-(4-hydroxy-4-phenyl-1-piperidyl)-5,6,7,8-tetrahydro-3H-quinazolin-4-one]	–	–	0.3 to 3	0.3 to 3	0.3 to 3
CC(C)Oc1ccccc1N1CCN(c2nc3c(c(=O)[nH]2)CCCC3)CC1 [Compound A42, 2-[4-(2-isopropoxyphenyl)piperazin-1-yl]-5,6,7,8-tetrahydro-3H-quinazolin-4-one]	–	–	0.3 to 3	0.3 to 3	–
O=c1[nH]c(N2CCN(c3ccccc3OC(F)(F)F)CC2)nc2c1CCCC2 [Compound A43, 2-[4-[2-(trifluoromethoxy)phenyl]piperazin-1-yl]-5,6,7,8-tetrahydro-3H-quinazolin-4-one]	–	–	3 to 50	0.3 to 3	–
N#CCc1ccc(N2CCN(c3nc4c(c(=O)[nH]3)CCCC4)CC2)cc1 [Compound A46, 2-[4-[4-(4-oxo-5,6,7,8-tetrahydro-3H-quinazolin-2-yl)piperazin-1-yl]phenyl] acetonitrile]	–	–	0.3 to 3	0.3 to 3	–
CCOc1ccc(N2CCN(c3nc4c(c(=O)[nH]3)CCCC4)CC2)cc1 [Compound A48, 2-[4-(4-ethoxyphenyl)piperazin-1-yl]-5,6,7,8-tetrahydro-3H-quinazolin-4-one]	< 0.3	< 0.3	0.3 to 3	0.3 to 3	–
O=c1[nH]c(N2CCN(c3ccc(C(F)(F)F)cc3)CC2)nc2c1CCCC2 [Compound A50, 2-[4-(4-trifluoromethylphenyl)piperazin-1-yl]-5,6,7,8-tetrahydro-3H-quinazolin-4-one]	–	–	0.3 to 3	0.3 to 3	–
COc1ccc(C2(O)CCN(c3nc4c(c(=O)[nH]3)CCCC4)CC2)cc1 [Compound A53, 2-[4-hydroxy-4-(4-methoxy-phenyl)-piperidin-1-yl]-5,6,7,8-tetrahydro-3H-quinazolin-4-one]	–	–	0.3 to 3	0.3 to 3	0.3 to 3
